Earlier results, collected in patent publication US11198893B2, “Method for producing omega 3 and omega 6 unsaturated fatty acid oxides” (Bizen Chemical Co., Ltd., priority 2016, dated 2021).

| Compound | glucose tolerance and insulin resistance (obese mice) | inflammatory cytokine expression (obese mice) | glycometabolism (liver glucose synthesis) | liver glucose synthesis (liver glucose synthesis) |
| --- | --- | --- | --- | --- |
| CC/C=C\C[C@H](O)/C=C/C=C\C/C=C\C/C=C\C/C=C\CCC(=O)O [17S-HDHA] | improve glucose tolerance and insulin resistance | suppresses inflammatory cytokine expression |  |  |
| CC/C=C\C[C@H](O)/C=C/C=C\C=C\[C@@H](O)C/C=C\C/C=C\CCC(=O)O [protectin DX] |  |  | action to promote glycometabolism | action to suppress liver glucose synthesis |
